# Molecular target: P. falciparum apicoplast DNA polymerase (Pf-apPOL) (Plasmodium falciparum, UniProt Q8ILY1)
# Assay: Fluorescence-based high-throughput DNA polymerase assay (molecular beacon), primary screen and dose-response;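 for % inhibition ApPOL 90': test concentration in µM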;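 for % inhibition apPOL 180': test concentration in µM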
# Assay type: biochemical
# Outline: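 Single-point screening used 10 µM compound with 20 nM polymerase, 20 nM hairpin substrate and 6 µM dNTPs for 90 min at 25 °C. Confirmatory titrations (2.5–80 µM) followed fluorescence at three times, and IC50 was derived from a fit including a cooperativity term n.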
# P. falciparum apicoplast DNA polymerase (Pf-apPOL), sequence (Q8ILY1 entry or part of it): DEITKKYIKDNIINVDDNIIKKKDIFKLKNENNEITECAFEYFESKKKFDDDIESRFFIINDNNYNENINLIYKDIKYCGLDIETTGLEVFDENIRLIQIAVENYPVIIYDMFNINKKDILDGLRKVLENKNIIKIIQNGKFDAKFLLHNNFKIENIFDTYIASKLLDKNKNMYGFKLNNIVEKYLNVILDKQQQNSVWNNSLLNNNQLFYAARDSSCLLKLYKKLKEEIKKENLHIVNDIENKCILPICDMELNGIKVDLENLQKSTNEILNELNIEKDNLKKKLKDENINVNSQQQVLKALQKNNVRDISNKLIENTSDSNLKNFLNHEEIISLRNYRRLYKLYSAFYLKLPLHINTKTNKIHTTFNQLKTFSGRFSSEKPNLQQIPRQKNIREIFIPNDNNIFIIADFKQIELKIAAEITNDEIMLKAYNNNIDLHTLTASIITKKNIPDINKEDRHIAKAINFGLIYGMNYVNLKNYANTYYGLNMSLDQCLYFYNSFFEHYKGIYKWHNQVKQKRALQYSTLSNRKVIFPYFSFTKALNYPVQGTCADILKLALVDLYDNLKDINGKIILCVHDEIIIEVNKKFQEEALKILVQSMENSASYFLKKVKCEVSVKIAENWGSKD
structure (smiles),measurement,setting,value
"O=c1cc(CN2CCCCC2)c2cc3c(cc2o1)OCO3 [Molecule 56, O=c1cc(CN2CCCCC2)c2c(o1)cc1c(c2)OCO1]",DNA Pol,"'DNA Pol' of the 186 hits list (primary screen result); unit not given; 90 min, 10 µM",34
same,% inhibition Apo pol 10',DRC-1; 10'; concentration 2.5,-1.492%
same,% inhibition Apo pol 10',DRC-1; 10'; concentration 5,3.303%
same,% inhibition Apo pol 10',DRC-1; 10'; concentration 10,19.9772%
same,% inhibition Apo pol 10',DRC-1; 10'; concentration 20,32.3483%
same,% inhibition Apo pol 10',DRC-1; 10'; concentration 40,45.3079%
same,% inhibition Apo pol 10',DRC-1; 10'; concentration 80,89.8826%
same,% inhibition Apol 90',DRC-1; 90'; concentration 2.5,2.551%
same,% inhibition Apol 90',DRC-1; 90'; concentration 5,7.455%
same,% inhibition Apol 90',DRC-1; 90'; concentration 10,24.7772%
same,% inhibition Apol 90',DRC-1; 90'; concentration 20,41.1965%
same,% inhibition Apol 90',DRC-1; 90'; concentration 40,58.3854%
same,% inhibition Apol 90',DRC-1; 90'; concentration 80,90.5438%
same,% inhibition apPOL 180',DRC-1; 180'; concentration 2.5,3.723%
same,% inhibition apPOL 180',DRC-1; 180'; concentration 5,9.055%
same,% inhibition apPOL 180',DRC-1; 180'; concentration 10,32.8614%
same,% inhibition apPOL 180',DRC-1; 180'; concentration 20,57.3951%
same,% inhibition apPOL 180',DRC-1; 180'; concentration 40,81.7381%
same,% inhibition apPOL 180',DRC-1; 180'; concentration 80,95.8992%
same,% inhibition Apo pol 5',"DRC-2, 5', concentration 10 (unit not given)",21%
same,% inhibition Apol 40',"DRC-2, 40', concentration 2.5 (unit not given)",8%
same,% inhibition Apol 40',"DRC-2, 40', concentration 5 (unit not given)",4%
same,% inhibition Apol 40',"DRC-2, 40', concentration 20 (unit not given)",39%
same,% inhibition Apol 40',"DRC-2, 40', concentration 80 (unit not given)",68%
same,% inhibition ApPOL 90',"DRC-2, 90', concentration 20 (unit not given)",39%
same,% inhibition ApPOL 90',"DRC-2, 90', concentration 80 (unit not given)",68%
same,% inhibition apPOL 180',"DRC-2, 180', concentration 10 (unit not given)",21%
same,% inhibition Apo pol 5',DRC-2; 5'; concentration 2.5,5.61%
same,% inhibition Apo pol 5',DRC-2; 5'; concentration 5,6%
same,% inhibition Apo pol 5',DRC-2; 5'; concentration 10,21%
same,% inhibition Apo pol 5',DRC-2; 5'; concentration 20,35%
same,% inhibition Apo pol 5',DRC-2; 5'; concentration 40,50%
same,% inhibition Apo pol 5',DRC-2; 5'; concentration 80,60%
same,% inhibition Apol 40',DRC-2; 40'; concentration 2.5,8%
same,% inhibition Apol 40',DRC-2; 40'; concentration 5,4%
same,% inhibition Apol 40',DRC-2; 40'; concentration 10,26%
same,% inhibition Apol 40',DRC-2; 40'; concentration 20,39%
same,% inhibition Apol 40',DRC-2; 40'; concentration 40,54%
same,% inhibition Apol 40',DRC-2; 40'; concentration 80,68%
same,% inhibition ApPOL 90',DRC-2; 90'; concentration 2.5,8%
same,% inhibition ApPOL 90',DRC-2; 90'; concentration 2.5 (unit not given),8%
same,% inhibition ApPOL 90',DRC-2; 90'; concentration 5,-0.711%
same,% inhibition ApPOL 90',DRC-2; 90'; concentration 10,27%
same,% inhibition ApPOL 90',DRC-2; 90'; concentration 20,39%
same,% inhibition ApPOL 90',DRC-2; 90'; concentration 40,53%
same,% inhibition ApPOL 90',DRC-2; 90'; concentration 80,68%
same,% inhibition apPOL 180',DRC-2; 180'; concentration 2.5,4%
same,% inhibition apPOL 180',DRC-2; 180'; concentration 2.5 (unit not given),4%
same,% inhibition apPOL 180',DRC-2; 180'; concentration 5,-66%
same,% inhibition apPOL 180',DRC-2; 180'; concentration 10,21%
same,% inhibition apPOL 180',DRC-2; 180'; concentration 20,32%
same,% inhibition apPOL 180',DRC-2; 180'; concentration 40,45%
same,% inhibition apPOL 180',DRC-2; 180'; concentration 80,64%
same,DNA Pol,"primary screen value of the library well; unit not given; 90 min, 10 µM",34
O=C(O)c1c(F)c(F)c(-c2c(F)c(F)c(C(=O)O)c(F)c2F)c(F)c1F [KU0008974],DNA Pol,"186 hits, value of the hit list (primary screen); unit not given; 90 min, 10 µM",36
same,% inhibition Apo pol 10',DRC-1; 10'; concentration 2.5,9.435%
same,% inhibition Apo pol 10',DRC-1; 10'; concentration 5,13.4595%
same,% inhibition Apo pol 10',DRC-1; 10'; concentration 10,21.422%
same,% inhibition Apo pol 10',DRC-1; 10'; concentration 20,42.0339%
same,% inhibition Apo pol 10',DRC-1; 10'; concentration 40,61.4201%
same,% inhibition Apo pol 10',DRC-1; 10'; concentration 80,59.9111%
same,% inhibition Apol 90',DRC-1; 90'; concentration 2.5,3.377%
same,% inhibition Apol 90',DRC-1; 90'; concentration 5,7.4359%
same,% inhibition Apol 90',DRC-1; 90'; concentration 10,14.2426%
same,% inhibition Apol 90',DRC-1; 90'; concentration 20,33.67%
same,% inhibition Apol 90',DRC-1; 90'; concentration 40,52.8962%
same,% inhibition Apol 90',DRC-1; 90'; concentration 80,50.0149%
same,% inhibition apPOL 180',DRC-1; 180'; concentration 2.5,-2.039%
same,% inhibition apPOL 180',DRC-1; 180'; concentration 5,0.5684%
same,% inhibition apPOL 180',DRC-1; 180'; concentration 10,7.634%
same,% inhibition apPOL 180',DRC-1; 180'; concentration 20,22.5458%
same,% inhibition apPOL 180',DRC-1; 180'; concentration 40,40.2712%
same,% inhibition apPOL 180',DRC-1; 180'; concentration 80,38.6937%
same,% inhibition Apo pol 5',"DRC-2, 5', concentration 2.5",4%
same,% inhibition Apo pol 5',"DRC-2, 5', concentration 5",5%
same,% inhibition Apo pol 5',"DRC-2, 5', concentration 10",17%
same,% inhibition Apo pol 5',"DRC-2, 5', concentration 20",29%
same,% inhibition Apo pol 5',"DRC-2, 5', concentration 40",17%
same,% inhibition Apo pol 5',"DRC-2, 5', concentration 80",35%
same,% inhibition Apol 40',"DRC-2, 40', concentration 2.5",5%
same,% inhibition Apol 40',"DRC-2, 40', concentration 5",9%
same,% inhibition Apol 40',"DRC-2, 40', concentration 10",23%
same,% inhibition Apol 40',"DRC-2, 40', concentration 20",41%
same,% inhibition Apol 40',"DRC-2, 40', concentration 40",20%
same,% inhibition Apol 40',"DRC-2, 40', concentration 80",47%
same,% inhibition ApPOL 90',"DRC-2, 90', concentration 2.5",2.67%
same,% inhibition ApPOL 90',"DRC-2, 90', concentration 5",7.58%
same,% inhibition ApPOL 90',"DRC-2, 90', concentration 10",21%
same,% inhibition ApPOL 90',"DRC-2, 90', concentration 20",39%
same,% inhibition ApPOL 90',"DRC-2, 90', concentration 40",19%
same,% inhibition ApPOL 90',"DRC-2, 90', concentration 80",47%
same,% inhibition apPOL 180',"DRC-2, 180', concentration 2.5",-4%
same,% inhibition apPOL 180',"DRC-2, 180', concentration 5",-1%
same,% inhibition apPOL 180',"DRC-2, 180', concentration 10",12%
same,% inhibition apPOL 180',"DRC-2, 180', concentration 20",30%
same,% inhibition apPOL 180',"DRC-2, 180', concentration 40",14%
same,% inhibition apPOL 180',"DRC-2, 180', concentration 80",40%
same,% inhibition Apo pol 5',DRC-2; 5'; concentration 5,5%
same,% inhibition Apo pol 5',DRC-2; 5'; concentration 10,17%
same,% inhibition Apo pol 5',DRC-2; 5'; concentration 40,17%
same,% inhibition Apol 40',DRC-2; 40'; concentration 2.5,5%
same,% inhibition Apol 40',DRC-2; 40'; concentration 80,47%
same,% inhibition ApPOL 90',DRC-2; 90'; concentration 80,47%
same,DNA Pol,"primary screen value, 'DNA Pol' only; 90 min, 10 µM",36
C=CCOc1c(Br)cc(Br)cc1/C=C1\SC(=N)NC1=O [KU0051640],DNA Pol,"'DNA Pol' of the 186 hits list (screen value); 90 min, 10 µM",26
same,% inhibition Apo pol 10',DRC-1; 10'; conc 2.5,4.163%
same,% inhibition Apo pol 10',DRC-1; 10'; conc 5,-1.099%
same,% inhibition Apo pol 10',DRC-1; 10'; conc 10,11.4088%
same,% inhibition Apo pol 10',DRC-1; 10'; conc 20,46.0852%
same,% inhibition Apo pol 10',DRC-1; 10'; conc 40,88.1194%
same,% inhibition Apo pol 10',DRC-1; 10'; conc 80,94.2659%
same,% inhibition Apol 90',DRC-1; 90'; conc 2.5,2.139%
same,% inhibition Apol 90',DRC-1; 90'; conc 5,-4.076%
same,% inhibition Apol 90',DRC-1; 90'; conc 10,7.3276%
same,% inhibition Apol 90',DRC-1; 90'; conc 20,38.2187%
same,% inhibition Apol 90',DRC-1; 90'; conc 40,86.7215%
same,% inhibition Apol 90',DRC-1; 90'; conc 80,95.0722%
same,% inhibition apPOL 180',DRC-1; 180'; conc 2.5,-0.2194%
same,% inhibition apPOL 180',DRC-1; 180'; conc 5,-7.333%
same,% inhibition apPOL 180',DRC-1; 180'; conc 10,0.9345%
same,% inhibition apPOL 180',DRC-1; 180'; conc 20,26.8822%
same,% inhibition apPOL 180',DRC-1; 180'; conc 40,86.6627%
same,% inhibition apPOL 180',DRC-1; 180'; conc 80,95.6515%
same,% inhibition Apo pol 5',DRC-2; 5'; conc 2.5,11%
same,% inhibition Apo pol 5',DRC-2; 5'; conc 5,7%
same,% inhibition Apo pol 5',DRC-2; 5'; conc 10,20%
same,% inhibition Apo pol 5',DRC-2; 5'; conc 20,43%
same,% inhibition Apo pol 5',DRC-2; 5'; conc 40,54%
same,% inhibition Apo pol 5',DRC-2; 5'; conc 80,54%
same,% inhibition Apo pol 5',DRC-2; 5'; concentration 5,7%
same,% inhibition Apo pol 5',DRC-2; 5'; concentration 40,54%
same,% inhibition Apo pol 5',DRC-2; 5'; concentration 80,54%
same,% inhibition Apol 40',DRC-2; 40'; conc 2.5,12%
same,% inhibition Apol 40',DRC-2; 40'; conc 5,7%
same,% inhibition Apol 40',DRC-2; 40'; conc 10,24%
same,% inhibition Apol 40',DRC-2; 40'; conc 20,54%
same,% inhibition Apol 40',DRC-2; 40'; conc 40,72%
same,% inhibition Apol 40',DRC-2; 40'; conc 80,75%
same,% inhibition Apol 40',DRC-2; 40'; concentration 2.5,12%
same,% inhibition Apol 40',DRC-2; 40'; concentration 5,7%
same,% inhibition Apol 40',DRC-2; 40'; concentration 20,54%
same,% inhibition ApPOL 90',DRC-2; 90'; conc 2.5,12%
same,% inhibition ApPOL 90',DRC-2; 90'; conc 5,6.55%
same,% inhibition ApPOL 90',DRC-2; 90'; conc 10,23%
same,% inhibition ApPOL 90',DRC-2; 90'; conc 20,56%
same,% inhibition ApPOL 90',DRC-2; 90'; conc 40,76%
same,% inhibition ApPOL 90',DRC-2; 90'; conc 80,79%
same,% inhibition ApPOL 90',DRC-2; 90'; concentration 2.5,12%
same,% inhibition ApPOL 90',DRC-2; 90'; concentration 40,76%
same,% inhibition apPOL 180',DRC-2; 180'; conc 2.5,9%
same,% inhibition apPOL 180',DRC-2; 180'; conc 5,4%
same,% inhibition apPOL 180',DRC-2; 180'; conc 10,17%
same,% inhibition apPOL 180',DRC-2; 180'; conc 20,49%
same,% inhibition apPOL 180',DRC-2; 180'; conc 40,76%
same,% inhibition apPOL 180',DRC-2; 180'; conc 80,81%
same,% inhibition apPOL 180',DRC-2; 180'; concentration 40,76%
same,DNA Pol,"primary screen value, ""DNA Pol""; 90 min, 10 µM",26

# Reference: paper PMC9090415, “Discovery of small molecule inhibitors of Plasmodium falciparum apicoplast DNA polymerase” (Journal of Enzyme Inhibition and Medicinal Chemistry, 2022)
